Assay results from article PMC2196141 (The Journal of Experimental Medicine, 1997).

Target: T1, CPP-32 (Homo sapiens, UniProt P42574)
T1 sequence (P42574 29-175 limits assumed): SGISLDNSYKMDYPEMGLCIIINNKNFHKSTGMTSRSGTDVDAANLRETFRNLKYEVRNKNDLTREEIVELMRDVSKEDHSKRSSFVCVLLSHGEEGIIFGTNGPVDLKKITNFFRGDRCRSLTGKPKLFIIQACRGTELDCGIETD
Test: S-nitrosylation of purified p17
Format: biochemical

SMILES: [N]=O [NO, nitric oxide]
- p17 wt / S-nitrosylation / S-NO/protein: 1 ± 0.04 mol/mol
